# Measurements reported in PMC10264579 (Frontiers in Pharmacology, 2023).
# Experiment: In vitro skin permeation study in Franz diffusion cells
# Type: in vitro ADME, human
# Conditions: all formulations
# Text: The steady-state flux was estimated from the slope of the linear portion of the plot of cumulative mass in the acceptor phase over time.
structure (smiles),measurement,value
"CC(C(=O)O)c1cccc(C(=O)c2ccccc2)c1 (stereo not shown) [KET, ketoprofen]","lag time, KET",below 0
